Data published in US20260285850A1, “SUBSTITUTED OXAZOLIDINONES AND IMIDAZOLINONES AS HERBICIDES” (FMC CORPORATION, priority 2023, published 2026).

Columns and labels:
Assay type in all cases: in vivo
[1] = tested on: barnyardgrass (Echinochloa crus-galli); test: Test A preemergence soil spray, visual injury rating 0-100; conditions: 10 days; for Barnyardgrass plant response rating (0 to 100 scale): 1000 g ai/ha
Excerpt: (§1) Seeds of plant species selected from barnyardgrass (Echinochloa crus-galli), blackgrass (Alopecurus myosuroides), corn (Zea mays), foxtail, giant (giant foxtail, Setaria faberi), green foxtail (Setaria viridis), goosegrass (Eleusine indica), kochia (Bassia scoparia), oat, wild (wild oat, Avena fatua), palmer (palmer amaranth, palmer pigweed, Amaranthus palmeri), ragweed (common ragweed, Ambrosia artemisiifolia), ryegrass, Italian (italian ryegrass, Lolium multiflorum), soybean (Glycine max) and wheat (Triticum aestivum) were planted into a blend of loam soil and sand and treated preemergence with a directed soil spray using test chemicals formulated in a non-phytotoxic solvent mixture which included a surfactant.
(§2) At the same time, plants selected from these crops and weed species and also galium (catchweed bedstraw, Galium aparine) and horseweed (Erigeron canadensis) were planted in pots containing the same blend of loam soil and sand and treated with postemergence applications of test chemicals formulated in the same manner. Plants ranged in height from 2 to 10 cm and were in the one- to two-leaf stage for the postemergence treatment. Treated plants and untreated controls were maintained in a greenhouse for 10 days, after which time all treated plants were compared to untreated controls and visually evaluated for injury. Plant response ratings, summarized in Table A, are based on a 0 to 100 scale where 0 is no effect and 100 is complete control. A dash (-) response means no test result.

[2] = tested on: blackgrass (Alopecurus myosuroides); test: as above; conditions: 10 days
Excerpt: as §1, §2

corn (Zea mays) [3] = test: as above; conditions: 10 days
Excerpt: as §1, §2

[4] = tested on: green foxtail (Setaria viridis); test: as above; conditions: 10 days; for Foxtail, Green plant response rating (0 to 100 scale): 1000 g ai/ha
Excerpt: as §1, §2

kochia (Bassia scoparia) [5] = test: as above; conditions: 10 days; for Kochia plant response rating (0 to 100 scale): 1000 g ai/ha
Excerpt: as §1, §2

[6] = tested on: oat, wild (wild oat, Avena fatua); test: as above; conditions: 10 days
Excerpt: as §1, §2

[7] = tested on: palmer (palmer amaranth, palmer pigweed, Amaranthus palmeri); test: as above; conditions: 10 days; for Amaranth, Palmer / Pigweed, Palmer plant response rating (0 to 100 scale): 1000 g ai/ha, 0 = no effect, 100 = complete control
Excerpt: as §1, §2

[8] = tested on: ragweed (common ragweed, Ambrosia artemisiifolia); test: as above; conditions: 10 days
Excerpt: as §1, §2

[9] = tested on: ryegrass, Italian (italian ryegrass, Lolium multiflorum); test: as above; conditions: 10 days; for Ryegrass, Italian plant response rating (0 to 100 scale): 1000 g ai/ha
Excerpt: as §1, §2

soybean (Glycine max) [10] = test: as above; conditions: 10 days
Excerpt: as §1, §2

[11] = tested on: wheat (Triticum aestivum); test: as above; conditions: 10 days
Excerpt: as §1, §2

[12] = tested on: barnyardgrass (Echinochloa crus-galli); test: Test A postemergence application, visual injury rating 0-100; conditions: for Barnyardgrass plant response rating: 1000 g ai/ha, 0 to 100 scale
Excerpt: as §1, §2

[13] = tested on: blackgrass (Alopecurus myosuroides); test: as above; conditions: for Blackgrass plant response rating: 1000 g ai/ha, 0 to 100 scale
Excerpt: as §1, §2

corn (Zea mays) [14] = test: as above
Excerpt: as §1, §2

[15] = tested on: green foxtail (Setaria viridis); test: as above; conditions: for Foxtail, Green plant response rating: 1000 g ai/ha, 0 to 100 scale
Excerpt: as §1, §2

kochia (Bassia scoparia) [16] = test: as above; conditions: for Kochia plant response rating: 1000 g ai/ha, 0 to 100 scale
Excerpt: as §1, §2

[17] = tested on: oat, wild (wild oat, Avena fatua); test: as above
Excerpt: as §1, §2

[18] = tested on: palmer (palmer amaranth, palmer pigweed, Amaranthus palmeri); test: as above
Excerpt: as §1, §2

[19] = tested on: ragweed (common ragweed, Ambrosia artemisiifolia); test: as above
Excerpt: as §1, §2

[20] = tested on: ryegrass, Italian (italian ryegrass, Lolium multiflorum); test: as above
Excerpt: as §1, §2

soybean (Glycine max) [21] = test: as above
Excerpt: as §1, §2

[22] = tested on: wheat (Triticum aestivum); test: as above
Excerpt: as §1, §2

[23] = tested on: barnyardgrass (Echinochloa crusgalli); test: Test B flooded paddy test, visual plant response rating 0-100; conditions: 250 g ai/ha, Flood, applied to paddy water, evaluated after 13 days
Method: (§3) Plant species in the flooded paddy test selected from barnyardgrass (Echinochloa crusgalli), ducksalad (Heteranthera limosa), rice (Oryza sativa), and sedge, umbrella (small-flower umbrella sedge, Cyperus difformis) were grown to the 2-leaf stage for testing. At time of treatment, test pots were flooded to 3 cm above the soil surface, treated by application of test compounds directly to the paddy water, and then maintained at that water depth for the duration of the test. Treated plants and controls were maintained in a greenhouse for 13 days, after which time all species were compared to controls and visually evaluated. […] A dash (-) response means no test result.

[24] = tested on: ducksalad (Heteranthera limosa); test: as above; conditions: 250 g ai/ha, Flood, applied to paddy water, evaluated after 13 days
Method: as §3

rice (Oryza sativa) = test: as above; conditions: 250 g ai/ha, Flood, applied to paddy water, evaluated after 13 days
Method: as §3

[25] = tested on: sedge, umbrella (small-flower umbrella sedge, Cyperus difformis); test: as above; conditions: 250 g ai/ha, Flood, applied to paddy water, evaluated after 13 days
Method: as §3

[26] = tested on: galium (catchweed bedstraw, Galium aparine); test: Test A postemergence application, visual injury rating 0-100; conditions: Postemergence, 1000 g ai/ha, 0 to 100 scale, 10 days
Excerpt: as §1, §2

[27] = tested on: horseweed (Erigeron canadensis); test: as above; conditions: Postemergence, 1000 g ai/ha, 0 to 100 scale, 10 days
Excerpt: as §1, §2

[28] = 62 g ai/ha, 0 = no effect, 100 = complete control
[29] = 62 g ai/ha, postemergence, 10 days, 0 = no effect, 100 = complete control
[30] = Postemergence, 16 g ai/ha, greenhouse 10 days, 0 no effect, 100 complete control
[31] = 0 = no effect, 100 = complete control

Structure (SMILES): CCOC(=O)C1=CCC(NC(=O)C2(C)CN(c3cc(F)cc(F)c3)C(=O)O2)C1 (centres unmarked) [Compound 111]
- Barnyardgrass plant response rating ([1]; 16 g ai/ha, 0 to 100 scale): 0
- Barnyardgrass plant response rating (0-100) [1, 28]: 0
- Blackgrass plant response rating ([2]; 16 g ai/ha, 0 to 100 scale): 0
- Blackgrass plant response rating (0-100) [2, 28]: 0
- Corn plant response rating (corn (Zea mays) [3]; 16 g ai/ha, 0 to 100 scale): 0
- Corn plant response rating (0-100) (corn (Zea mays) [3]; [28]): 0
- Foxtail, Green plant response rating ([4]; 16 g ai/ha, 0 to 100 scale): 0
- Foxtail, Green plant response rating (0-100) [4, 28]: 0
- Kochia plant response rating (kochia (Bassia scoparia) [5]; 16 g ai/ha, 0 to 100 scale): 0
- Kochia plant response rating (0-100) (kochia (Bassia scoparia) [5]; [28]): 0
- Oat, Wild plant response rating ([6]; 16 g ai/ha, 0 to 100 scale): 0
- Oat, Wild plant response rating (0-100) [6, 28]: 0
- Pigweed, Palmer plant response rating ([7]; 16 g ai/ha, 0 to 100 scale): 0
- Ragweed plant response rating ([8]; 16 g ai/ha, 0 to 100 scale): 0
- Ragweed plant response rating (0-100) [8, 28]: 0
- Ryegrass, Italian plant response rating ([9]; 16 g ai/ha, 0 to 100 scale): 0
- Ryegrass, Italian plant response rating (0-100) [9, 28]: 0
- Soybean plant response rating (soybean (Glycine max) [10]; 16 g ai/ha, 0 to 100 scale): 100
- Soybean plant response rating (0-100) (soybean (Glycine max) [10]; [28]): 0
- Wheat plant response rating ([11]; 16 g ai/ha, 0 to 100 scale): 0
- Wheat plant response rating (0-100) [11, 28]: 0
- Barnyardgrass plant response rating (0-100) [12, 29]: 20
- Barnyardgrass plant response rating (0 to 100 scale) [12, 30]: 0
- Blackgrass plant response rating (0-100) [13, 29]: 0
- Blackgrass plant response rating (0 to 100 scale) [13, 30]: 0
- Corn plant response rating (0-100) (corn (Zea mays) [14]; [29]): 0
- Corn plant response rating (0 to 100 scale) (corn (Zea mays) [14]; [30]): 0
- Foxtail, Green plant response rating (0-100) [15, 29]: 0
- Foxtail, Green plant response rating (0 to 100 scale) [15, 30]: 0
- Kochia plant response rating (0-100) (kochia (Bassia scoparia) [16]; [29]): 0
- Kochia plant response rating (0 to 100 scale) (kochia (Bassia scoparia) [16]; [30]): 0
- Oat, Wild plant response rating (0-100) [17, 29]: 0
- Oat, Wild plant response rating (0 to 100 scale) [17, 30]: 0
- Pigweed, Palmer plant response rating (0-100) [18, 29]: 10
- Pigweed, Palmer plant response rating (0 to 100 scale) [18, 30]: 0
- Ragweed plant response rating (0-100) [19, 29]: 0
- Ragweed plant response rating (0 to 100 scale) [19, 30]: 0
- Ryegrass, Italian plant response rating (0-100) [20, 29]: 0
- Ryegrass, Italian plant response rating (0 to 100 scale) [20, 30]: 0
- Soybean plant response rating (0-100) (soybean (Glycine max) [21]; [29]): 0
- Soybean plant response rating (0 to 100 scale) (soybean (Glycine max) [21]; [30]): 0
- Wheat plant response rating (0-100) [22, 29]: 20
- Wheat plant response rating (0 to 100 scale) [22, 30]: 0
- Plant response rating, Barnyardgrass (0 to 100 scale, 0 is no effect and 100 is complete control) [23]: 0
- Plant response rating, Ducksalad (0 to 100 scale, 0 is no effect and 100 is complete control) [24]: 0
- Plant response rating, Rice (0 to 100 scale, 0 is no effect and 100 is complete control) (rice (Oryza sativa)): 0
- Plant response rating, Sedge, Umbrella (0 to 100 scale, 0 is no effect and 100 is complete control) [25]: 0

Structure (SMILES): CC1(C(=O)NC2C=CC(C(=O)O)C2)CN(c2cc(F)cc(F)c2)C(=O)N1 (centres unmarked) [Compound 179]
- Barnyardgrass plant response rating (0 to 100 scale) [1, 31]: 100
- Foxtail, Green plant response rating (0 to 100 scale) [4, 31]: 100
- Kochia plant response rating (0 to 100 scale) (kochia (Bassia scoparia) [5]; [31]): 100
- Amaranth, Palmer / Pigweed, Palmer plant response rating (0 to 100 scale) [7]: 60
- Ryegrass, Italian plant response rating (0 to 100 scale) [9, 31]: 100
- Barnyardgrass plant response rating ([12]; Postemergence, 10 days): 100
- Blackgrass plant response rating ([13]; Postemergence, 10 days): 100
- Galium plant response rating [26]: 90
- Foxtail, Green plant response rating ([15]; Postemergence, 10 days): 90
- Horseweed plant response rating [27]: 80
- Kochia plant response rating (kochia (Bassia scoparia) [16]; Postemergence, 10 days): 90

Structure (SMILES): COC(=O)C1C=CC(NC(=O)C2(C)CN(c3cc(F)cc(F)c3)C(=O)N2)C1 (centres unmarked) [Compound 180]
- Barnyardgrass plant response rating (0 to 100 scale) [1, 31]: 100
- Foxtail, Green plant response rating (0 to 100 scale) [4, 31]: 100
- Kochia plant response rating (0 to 100 scale) (kochia (Bassia scoparia) [5]; [31]): 100
- Amaranth, Palmer / Pigweed, Palmer plant response rating (0 to 100 scale) [7]: 100
- Ryegrass, Italian plant response rating (0 to 100 scale) [9, 31]: 100
- Barnyardgrass plant response rating ([12]; Postemergence, 10 days): 100
- Blackgrass plant response rating ([13]; Postemergence, 10 days): 90
- Galium plant response rating [26]: 90
- Foxtail, Green plant response rating ([15]; Postemergence, 10 days): 90
- Horseweed plant response rating [27]: 90
- Kochia plant response rating (kochia (Bassia scoparia) [16]; Postemergence, 10 days): 80

Structure (SMILES): COC(=O)C1CC(NC(=O)C2(C(F)(F)F)CN(c3cc(F)cc(F)c3)C(=O)O2)C1 (centres unmarked) [Compound 196]
- Plant response rating, Barnyardgrass (0 to 100 scale, 0 is no effect and 100 is complete control) [23]: 95
- Plant response rating, Ducksalad (0 to 100 scale, 0 is no effect and 100 is complete control) [24]: 50
- Plant response rating, Rice (0 to 100 scale, 0 is no effect and 100 is complete control) (rice (Oryza sativa)): 85
- Plant response rating, Sedge, Umbrella (0 to 100 scale, 0 is no effect and 100 is complete control) [25]: 95

Structure (SMILES): CC1(C(=O)NC2CC=C(C(=O)OCC3CC3)C2)CN(c2cc(Cl)cc(Cl)c2)C(=O)O1 (centres unmarked) [Compound 198]
- Plant response rating, Barnyardgrass (0 to 100 scale, 0 is no effect and 100 is complete control) [23]: 90
- Plant response rating, Ducksalad (0 to 100 scale, 0 is no effect and 100 is complete control) [24]: 60
- Plant response rating, Rice (0 to 100 scale, 0 is no effect and 100 is complete control) (rice (Oryza sativa)): 85
- Plant response rating, Sedge, Umbrella (0 to 100 scale, 0 is no effect and 100 is complete control) [25]: 75
